Measured values from paper PMC8315109 (Science signaling, 2021).

Columns and labels:
[1] = molecular target: T1, Jupiter microtubule-associated homolog 2 (JPT2) (Homo sapiens, UniProt Q9H910); assay: […]-NAADP radioligand filtration binding, displacement by HPLC-purified NADP
T1 sequence (Q9H910 1-218 isoform Q9H910-3): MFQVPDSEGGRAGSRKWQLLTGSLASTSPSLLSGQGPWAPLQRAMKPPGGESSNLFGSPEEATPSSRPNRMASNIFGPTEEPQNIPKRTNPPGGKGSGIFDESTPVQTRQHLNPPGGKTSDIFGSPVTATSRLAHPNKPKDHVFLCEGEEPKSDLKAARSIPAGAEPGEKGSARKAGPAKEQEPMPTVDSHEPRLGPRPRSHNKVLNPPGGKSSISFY

[2] = molecular target: T1, Jupiter microtubule-associated homolog 2 (JPT2); assay: […]-NAADP radioligand filtration binding, displacement by unlabeled NAADP

| IC50 [1] [nM] | IC50 [2] [nM] | Compound |
| --- | --- | --- |
| 334 ± 76 | – | NC(=O)c1ccc[n+]([C@@H]2O[C@H](COP(=O)(O)OP(=O)(O)OC[C@H]3O[C@@H](n4cnc5c(N)ncnc54)[C@H](OP(=O)(O)O)[C@@H]3O)[C@@H](O)[C@H]2O)c1 [NADP] |
| – | 20 ± 3.6 | Nc1ncnc2c1ncn2[C@@H]1O[C@H](COP(=O)(O)OP(=O)(O)OC[C@H]2O[C@@H]([n+]3cccc(C(=O)O)c3)[C@H](O)[C@@H]2O)[C@@H](O)[C@H]1OP(=O)(O)O [NAADP] |
